Data reported in patent publication US12365696B2, “Small-molecule focal adhesion kinase (FAK) inhibitors” (DANA-FARBER CANCER INSTITUTE, INC., priority 2019, dated 2025).
Read-outs that look alike come from different tables or passages of the source.

Assays:
Assay in all cases: KINOMEscan
Assay type in all cases: binding
[1] = molecular target: JAK1(JH2domain-pseudokinase) (Homo sapiens (Human), UniProt P23458); conditions: 10000 nM, read-out: Percent Control
HCK = HCK (Homo sapiens (Human), UniProt P08631); conditions: 10000 nM, read-out: Percent Control
Sequence of HCK (P08631 whole entry): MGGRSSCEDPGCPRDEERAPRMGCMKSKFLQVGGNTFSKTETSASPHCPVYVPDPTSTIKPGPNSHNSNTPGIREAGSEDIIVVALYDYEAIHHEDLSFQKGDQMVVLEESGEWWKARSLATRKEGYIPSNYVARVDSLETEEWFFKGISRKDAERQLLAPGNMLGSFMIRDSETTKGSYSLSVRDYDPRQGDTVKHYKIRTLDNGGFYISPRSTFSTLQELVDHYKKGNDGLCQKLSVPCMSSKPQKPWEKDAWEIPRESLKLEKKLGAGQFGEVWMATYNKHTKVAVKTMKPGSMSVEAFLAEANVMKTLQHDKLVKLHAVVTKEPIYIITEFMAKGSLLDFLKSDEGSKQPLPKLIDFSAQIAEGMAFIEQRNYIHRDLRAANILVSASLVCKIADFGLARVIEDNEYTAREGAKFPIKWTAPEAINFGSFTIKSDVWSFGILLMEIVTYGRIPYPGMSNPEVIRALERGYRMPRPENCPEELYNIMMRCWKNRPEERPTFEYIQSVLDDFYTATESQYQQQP

LIMK2 = LIMK2 (Homo sapiens (Human), UniProt P53671); conditions: LIMK2, 10000 nM; read-out: Percent Control
Sequence of LIMK2 (P53671 whole entry): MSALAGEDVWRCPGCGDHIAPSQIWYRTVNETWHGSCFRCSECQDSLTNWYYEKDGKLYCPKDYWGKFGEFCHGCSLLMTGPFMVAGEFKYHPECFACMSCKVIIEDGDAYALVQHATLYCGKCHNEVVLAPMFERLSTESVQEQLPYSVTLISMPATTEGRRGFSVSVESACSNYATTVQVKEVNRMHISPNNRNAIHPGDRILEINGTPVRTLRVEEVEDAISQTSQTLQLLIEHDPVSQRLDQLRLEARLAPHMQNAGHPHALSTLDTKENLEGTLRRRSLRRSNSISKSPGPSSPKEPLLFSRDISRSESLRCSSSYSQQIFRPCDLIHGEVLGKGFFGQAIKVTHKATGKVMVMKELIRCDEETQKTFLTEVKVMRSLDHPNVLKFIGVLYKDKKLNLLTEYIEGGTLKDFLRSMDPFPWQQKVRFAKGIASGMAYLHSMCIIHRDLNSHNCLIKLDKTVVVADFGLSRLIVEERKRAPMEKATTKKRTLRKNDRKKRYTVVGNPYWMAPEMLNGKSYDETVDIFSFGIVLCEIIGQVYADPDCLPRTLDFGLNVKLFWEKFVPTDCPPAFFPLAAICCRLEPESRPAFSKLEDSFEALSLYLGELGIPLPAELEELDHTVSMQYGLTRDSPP

MKNK1 = MKNK1 (Homo sapiens (Human), UniProt Q9BUB5); conditions: MKNK1, 10000 nM; read-out: Percent Control
FYN = FYN (Homo sapiens (Human), UniProt P06241); conditions: 10000 nM, read-out: Percent Control
PIM3 = PIM3 (Homo sapiens (Human), UniProt Q86V86); conditions: PIM3, 10000 nM; read-out: Percent Control
EGFR(E746-A750del) = EGFR(E746-A750del) (Homo sapiens (Human), UniProt P00533, DEL746-750); conditions: 10000 nM, read-out: Percent Control
AXL = AXL (Homo sapiens (Human), UniProt P30530); conditions: 10000 nM, read-out: Percent Control
Sequence of AXL (P30530 26-894): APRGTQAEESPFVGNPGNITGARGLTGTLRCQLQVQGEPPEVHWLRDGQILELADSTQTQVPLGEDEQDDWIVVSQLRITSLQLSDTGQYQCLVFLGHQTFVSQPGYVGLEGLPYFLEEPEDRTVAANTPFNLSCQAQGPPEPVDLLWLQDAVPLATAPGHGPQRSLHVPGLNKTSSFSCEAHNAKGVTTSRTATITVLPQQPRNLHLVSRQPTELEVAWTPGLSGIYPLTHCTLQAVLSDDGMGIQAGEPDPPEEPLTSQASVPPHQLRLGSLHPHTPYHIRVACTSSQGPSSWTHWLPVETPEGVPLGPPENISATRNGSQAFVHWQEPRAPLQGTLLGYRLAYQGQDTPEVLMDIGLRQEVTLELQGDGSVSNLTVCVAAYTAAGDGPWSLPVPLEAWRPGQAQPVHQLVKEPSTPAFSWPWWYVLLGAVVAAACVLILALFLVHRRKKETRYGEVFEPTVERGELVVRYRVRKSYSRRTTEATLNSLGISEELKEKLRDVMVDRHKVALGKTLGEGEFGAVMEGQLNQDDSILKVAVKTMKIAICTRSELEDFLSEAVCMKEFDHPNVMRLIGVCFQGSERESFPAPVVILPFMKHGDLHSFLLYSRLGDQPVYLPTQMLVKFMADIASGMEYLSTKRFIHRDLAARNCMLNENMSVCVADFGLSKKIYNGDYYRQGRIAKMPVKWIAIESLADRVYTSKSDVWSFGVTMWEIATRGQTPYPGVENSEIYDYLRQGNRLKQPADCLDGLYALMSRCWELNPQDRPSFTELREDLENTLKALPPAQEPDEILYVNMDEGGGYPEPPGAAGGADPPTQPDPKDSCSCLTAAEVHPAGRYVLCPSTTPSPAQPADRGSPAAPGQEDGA

MST1 = MST1 (Homo sapiens (Human), UniProt Q13043); conditions: MST1, 10000 nM; read-out: Percent Control
JNK3 = JNK3 (Homo sapiens (Human), UniProt P53779); conditions: JNK3, 10000 nM; read-out: Percent Control
AURKB = AURKB (Homo sapiens (Human), UniProt Q96GD4); conditions: 10000 nM, read-out: Percent Control
PLK3 = PLK3 (Homo sapiens (Human), UniProt Q9H4B4); conditions: PLK3, 10000 nM; read-out: Percent Control
Sequence of PLK3 (Q9H4B4 whole entry): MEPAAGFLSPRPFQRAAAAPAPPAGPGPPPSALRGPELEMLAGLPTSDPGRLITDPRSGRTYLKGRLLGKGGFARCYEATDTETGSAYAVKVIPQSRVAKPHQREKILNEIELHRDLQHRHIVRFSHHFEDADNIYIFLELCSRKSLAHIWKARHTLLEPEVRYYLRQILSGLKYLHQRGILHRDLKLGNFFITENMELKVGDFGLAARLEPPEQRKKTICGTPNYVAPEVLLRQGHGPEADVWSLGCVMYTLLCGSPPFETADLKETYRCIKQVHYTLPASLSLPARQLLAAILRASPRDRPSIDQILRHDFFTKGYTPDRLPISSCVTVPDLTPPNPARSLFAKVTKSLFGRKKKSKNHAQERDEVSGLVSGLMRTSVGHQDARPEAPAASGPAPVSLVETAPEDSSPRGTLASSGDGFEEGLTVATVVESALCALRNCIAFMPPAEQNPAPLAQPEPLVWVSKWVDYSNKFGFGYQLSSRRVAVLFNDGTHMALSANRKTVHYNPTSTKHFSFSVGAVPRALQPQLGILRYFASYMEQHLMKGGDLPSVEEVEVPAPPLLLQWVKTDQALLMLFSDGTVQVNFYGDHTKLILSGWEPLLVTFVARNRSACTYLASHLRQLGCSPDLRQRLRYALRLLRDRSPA

NLK = NLK (Homo sapiens (Human), UniProt Q9UBE8); conditions: 10000 nM, read-out: Percent Control
Sequence of NLK (Q9UBE8 whole entry): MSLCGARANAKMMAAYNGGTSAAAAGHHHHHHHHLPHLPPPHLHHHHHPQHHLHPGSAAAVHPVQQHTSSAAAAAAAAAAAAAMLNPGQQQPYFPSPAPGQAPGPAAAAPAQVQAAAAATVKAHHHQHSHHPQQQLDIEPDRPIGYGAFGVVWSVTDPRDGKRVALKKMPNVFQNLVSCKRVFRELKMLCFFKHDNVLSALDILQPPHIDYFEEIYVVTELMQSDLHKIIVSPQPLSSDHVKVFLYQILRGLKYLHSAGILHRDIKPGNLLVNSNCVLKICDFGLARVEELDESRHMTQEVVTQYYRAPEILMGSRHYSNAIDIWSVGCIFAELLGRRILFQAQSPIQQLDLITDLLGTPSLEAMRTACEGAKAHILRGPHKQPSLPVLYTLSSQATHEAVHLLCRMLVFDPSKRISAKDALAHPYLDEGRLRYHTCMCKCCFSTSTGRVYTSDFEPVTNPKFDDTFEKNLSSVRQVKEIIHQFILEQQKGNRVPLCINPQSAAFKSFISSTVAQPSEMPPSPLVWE

TXK = TXK (Homo sapiens (Human), UniProt P42681); conditions: 10000 nM, read-out: Percent Control
Sequence of TXK (P42681 whole entry): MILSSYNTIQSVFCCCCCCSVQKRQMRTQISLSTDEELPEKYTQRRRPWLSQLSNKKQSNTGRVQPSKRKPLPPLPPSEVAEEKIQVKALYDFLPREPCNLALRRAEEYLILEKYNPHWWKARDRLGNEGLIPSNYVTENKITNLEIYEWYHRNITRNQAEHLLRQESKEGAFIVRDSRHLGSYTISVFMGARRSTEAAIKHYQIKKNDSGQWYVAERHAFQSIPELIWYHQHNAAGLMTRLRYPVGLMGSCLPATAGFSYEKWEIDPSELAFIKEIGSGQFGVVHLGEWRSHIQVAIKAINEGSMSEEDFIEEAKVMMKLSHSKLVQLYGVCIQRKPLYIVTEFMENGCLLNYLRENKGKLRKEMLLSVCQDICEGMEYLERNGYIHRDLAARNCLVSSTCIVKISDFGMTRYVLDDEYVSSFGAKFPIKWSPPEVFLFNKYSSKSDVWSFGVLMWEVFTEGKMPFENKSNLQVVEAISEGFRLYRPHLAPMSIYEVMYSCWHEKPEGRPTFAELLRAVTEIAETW

BTK = BTK (Homo sapiens (Human), UniProt Q06187); conditions: 10000 nM, read-out: Percent Control
CDK5 = CDK5 (Homo sapiens (Human), UniProt Q00535); conditions: CDK5, 10000 nM; read-out: Percent Control
PIK4CB = PIK4CB (Homo sapiens (Human), UniProt Q9UBF8); conditions: 10000 nM, read-out: Percent Control
Sequence of PIK4CB (Q9UBF8 whole entry): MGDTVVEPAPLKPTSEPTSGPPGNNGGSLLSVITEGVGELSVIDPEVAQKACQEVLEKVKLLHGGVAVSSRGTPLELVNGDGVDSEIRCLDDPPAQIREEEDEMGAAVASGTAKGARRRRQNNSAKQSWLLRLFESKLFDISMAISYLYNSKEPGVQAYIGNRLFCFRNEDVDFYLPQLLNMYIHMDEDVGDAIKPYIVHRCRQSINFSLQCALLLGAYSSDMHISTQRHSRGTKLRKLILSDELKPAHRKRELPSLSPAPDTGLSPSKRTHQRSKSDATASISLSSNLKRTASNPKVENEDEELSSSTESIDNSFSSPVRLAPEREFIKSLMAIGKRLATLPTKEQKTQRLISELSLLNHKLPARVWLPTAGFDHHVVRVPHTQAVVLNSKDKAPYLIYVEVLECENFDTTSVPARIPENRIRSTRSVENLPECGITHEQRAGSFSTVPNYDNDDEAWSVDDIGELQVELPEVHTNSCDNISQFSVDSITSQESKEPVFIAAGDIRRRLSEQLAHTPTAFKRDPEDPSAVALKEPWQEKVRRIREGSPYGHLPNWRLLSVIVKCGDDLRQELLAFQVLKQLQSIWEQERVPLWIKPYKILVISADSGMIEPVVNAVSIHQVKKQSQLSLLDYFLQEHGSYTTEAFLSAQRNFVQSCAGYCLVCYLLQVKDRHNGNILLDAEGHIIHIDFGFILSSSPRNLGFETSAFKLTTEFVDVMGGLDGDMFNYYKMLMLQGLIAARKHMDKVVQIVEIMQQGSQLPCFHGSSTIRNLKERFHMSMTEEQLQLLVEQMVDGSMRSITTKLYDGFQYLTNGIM

SGK3 = SGK3 (Homo sapiens (Human), UniProt Q96BR1); conditions: SGK3, 10000 nM; read-out: Percent Control
ERK3 = ERK3 (Homo sapiens (Human), UniProt Q16659); conditions: ERK3, 10000 nM; read-out: Percent Control
ZAP70 = ZAP70 (Homo sapiens (Human), UniProt P43403); conditions: ZAP70, 10000 nM; read-out: Percent Control
PIP5K2B = PIP5K2B (Homo sapiens (Human), UniProt P78356); conditions: 10000 nM, read-out: Percent Control
Sequence of PIP5K2B (P78356 whole entry): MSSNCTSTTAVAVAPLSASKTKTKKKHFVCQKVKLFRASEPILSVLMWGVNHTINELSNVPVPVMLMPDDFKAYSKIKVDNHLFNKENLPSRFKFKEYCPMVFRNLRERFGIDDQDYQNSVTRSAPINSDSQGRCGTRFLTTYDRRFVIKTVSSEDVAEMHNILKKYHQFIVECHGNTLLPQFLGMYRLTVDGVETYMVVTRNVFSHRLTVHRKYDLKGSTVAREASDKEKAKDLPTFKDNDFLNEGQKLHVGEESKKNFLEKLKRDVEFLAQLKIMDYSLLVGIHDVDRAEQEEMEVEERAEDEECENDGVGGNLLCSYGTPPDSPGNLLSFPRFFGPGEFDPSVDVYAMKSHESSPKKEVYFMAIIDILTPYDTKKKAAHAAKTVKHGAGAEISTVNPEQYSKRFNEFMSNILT

EGFR(S752-I759del) = EGFR(S752-I759del) (Homo sapiens (Human), UniProt P00533, DEL752-759); conditions: 10000 nM, read-out: Percent Control
PIK3CA(M1043I) = PIK3CA(M1043I) (Homo sapiens (Human), UniProt P42336, M1043I); conditions: 10000 nM, read-out: Percent Control
MERTK = MERTK (Homo sapiens (Human), UniProt Q12866); conditions: 10000 nM, read-out: Percent Control
SRPK3 = SRPK3 (Homo sapiens (Human), UniProt Q9UPE1); conditions: SRPK3, 10000 nM; read-out: Percent Control
GRK1 = GRK1 (Homo sapiens (Human), UniProt Q15835); conditions: GRK1, 10000 nM; read-out: Percent Control
DYRK1A = DYRK1A (Homo sapiens (Human), UniProt Q13627); conditions: 10000 nM, read-out: Percent Control
MEK4 = MEK4 (Homo sapiens (Human), UniProt P45985); conditions: MEK4, 10000 nM; read-out: Percent Control
STK36 = STK36 (Homo sapiens (Human), UniProt Q9NRP7); conditions: STK36, 10000 nM; read-out: Percent Control
p38-alpha = p38-alpha (Homo sapiens (Human), UniProt Q16539); conditions: 10000 nM, read-out: Percent Control
p38-beta = p38-beta (Homo sapiens (Human), UniProt Q15759); conditions: 10000 nM, read-out: Percent Control
ARK5 = ARK5 (Homo sapiens (Human), UniProt O60285); conditions: ARK5, 10000 nM; read-out: Percent Control
CDC2L2 = CDC2L2 (Homo sapiens (Human), UniProt Q9UQ88); conditions: CDC2L2, 10000 nM; read-out: Percent Control
KIT = KIT (Homo sapiens (Human), UniProt P10721); conditions: 10000 nM, read-out: Percent Control
ITK = ITK (Homo sapiens (Human), UniProt Q08881); conditions: 10000 nM, read-out: Percent Control

SMILES | remaining binding at 10 µM [1] [%] | remaining binding at 10 µM (HCK) [%] | remaining binding at 10 µM (LIMK2) [%] | remaining binding at 10 µM (MKNK1) [%] | remaining binding at 10 µM (FYN) [%] | remaining binding at 10 µM (PIM3) [%] | remaining binding at 10 µM (EGFR(E746-A750del)) [%] | remaining binding at 10 µM (AXL) [%] | remaining binding at 10 µM (MST1) [%] | remaining binding at 10 µM (JNK3) [%] | remaining binding at 10 µM (AURKB) [%] | remaining binding at 10 µM (PLK3) [%] | remaining binding at 10 µM (NLK) [%] | remaining binding at 10 µM (TXK) [%] | remaining binding at 10 µM (BTK) [%] | remaining binding at 10 µM (CDK5) [%] | remaining binding at 10 µM (PIK4CB) [%] | remaining binding at 10 µM (SGK3) [%] | remaining binding at 10 µM (ERK3) [%] | remaining binding at 10 µM (ZAP70) [%] | other results
COc1cc(N2CCC(N3CCN(C)CC3)CC2)ccc1Nc1ncc2c(n1)N(C)c1sc(C)nc1C(=O)N2 [Compound 3, 6-((2-methoxy-4-(4-(4-methylpiperazin-1-yl)piperidin-1-yl)phenyl)amino)-2,4-dimethyl-4,9-dihydro-10H-pyrimido[5,4-b]thiazolo[5,4-e][1,4]diazepin-10-one] | 85 | 69 | 91 | 100 | 73 | 70 | 67 | 100 | 89 | 100 | 100 | 52 | 59 | 73 | 100 | 71 | 85 | 100 | 89 | 100 | remaining binding at 10 µM (PIP5K2B): 76%; remaining binding at 10 µM (EGFR(S752-I759del)): 47%; remaining binding at 10 µM (PIK3CA(M1043I); PIK3CA(M1043I)): 87%; remaining binding at 10 µM (MERTK): 93%; remaining binding at 10 µM (SRPK3): 75%; remaining binding at 10 µM (GRK1): 86%; remaining binding at 10 µM (DYRK1A): 100%; remaining binding at 10 µM (MEK4): 100%; remaining binding at 10 µM (STK36): 61%; remaining binding at 10 µM (p38-alpha): 75%; remaining binding at 10 µM (p38-beta): 55%; remaining binding at 10 µM (ARK5): 86%; remaining binding at 10 µM (CDC2L2): 87%; remaining binding at 10 µM (KIT): 54%; remaining binding at 10 µM (ITK): 87%
COc1cc(N2CCC(N3CCN(C)CC3)CC2)ccc1Nc1ncc2c(n1)N(C)c1sc(C)nc1C(=O)N2C [Compound 5, 6-((2-methoxy-4-(4-(4-methylpiperazin-1-yl)piperidin-1-yl)phenyl)amino)-2,4,9-trimethyl-4,9-dihydro-10H-pyrimido[5,4-b]thiazolo[5,4-e][1,4]diazepin-10-one] | 89 | 95 | 98 | 96 | 93 | 100 | 79 | 97 | 100 | 97 | 99 | 20 | 93 | 99 | 100 | 98 | 100 | 100 | 100 | 100 | remaining binding at 10 µM (PIP5K2B): 39%; remaining binding at 10 µM (EGFR(S752-I759del)): 100%; remaining binding at 10 µM (PIK3CA(M1043I); PIK3CA(M1043l)): 100%; remaining binding at 10 µM (MERTK): 100%; remaining binding at 10 µM (SRPK3): 100%; remaining binding at 10 µM (GRK1): 81%; remaining binding at 10 µM (DYRK1A): 87%; remaining binding at 10 µM (MEK4): 100%; remaining binding at 10 µM (STK36): 100%; remaining binding at 10 µM (p38-alpha): 93%; remaining binding at 10 µM (p38-beta): 95%; remaining binding at 10 µM (ARK5): 94%; remaining binding at 10 µM (CDC2L2): 95%; remaining binding at 10 µM (KIT): 100%; remaining binding at 10 µM (ITK): 99%
